Article PMC3750255, “Inhibition of Mycoplasma pneumoniae growth by FDA-approved anticancer and antiviral nucleoside and nucleobase analogs” (BMC Microbiology, 2013)

Experiments:
[1] = test system: M. pneumoniae thyA mutant (lacking TS activity); experiment: microbe, parasite or virus in culture; assay type: cell-based, Mycoplasma pneumoniae; conditions: minimal concentration producing 90% inhibition; thyA mutant Mpn
Description: A series dilution of each compound in Mycoplasma growth medium was added to Mpn cultures in 96-well plates. The plates were sealed and incubated at 37°C. Mpn growth was monitored by using growth index value e.g. the ratio of absorbance at 450 nm and 560 nm of the culture medium. Thirty nucleoside and nucleobase analogs and a nucleoside transporter inhibitor were included, and two Mpn strains, wild type and a thyA mutant (lacking TS activity), were used.
Nucleoside and nucleobase analogs were dissolved in dimethyl sulfoxide (DMSO) as stock solutions and diluted with Mpn culture medium to the desired concentration immediately prior to use.
Mpn laboratory strain M129 wild type and a thyA mutant strain [31] were used in this study. Mpn was cultured at 37°C in a CO2 incubator using 75 cm^2 tissue culture flasks containing 50 ml Hayflick’s medium, and harvested at day 4 when the medium color change was observed. The cells were harvested and the pellet was resuspended in 6 ml fresh medium and the cfu/ml was determined by serial dilution (10-fold) and plating on broth agar plate. Colonies was counted and cfu/ml was calculated.
Inhibition studies were performed in 96-well plates containing 200 μl Mpn culture (approximately 10^6 cfu ml^-1) in Hayflick’s medium and 200 μl each compound in series dilutions (2-fold) with the growth medium, with three to four replicas. The plates were sealed with clear adhesive sheets and incubated at 37°C incubator. Absorbance ratio at 450 nm and 560 nm was used as Mpn growth index, which was measured daily, and by visual detection for at least 8 days, as previously described. […] The MICs (minimal inhibitory concentration required to inhibit Mpn growth to 90%) were determined as the lowest concentration at which the growth index was ≈ 10% of the control values (at the time when the control culture medium color turned yellow), essentially as described.

human TK1 = molecular target: T1, human TK1 (Homo sapiens, UniProt P04183); experiment: TFT phosphorylation kinetics, phosphoryl transfer assay; assay type: biochemical; conditions: 100 μM [γ-32P]-ATP
T1 construct: made in house
T1 sequence (P04183 1-234): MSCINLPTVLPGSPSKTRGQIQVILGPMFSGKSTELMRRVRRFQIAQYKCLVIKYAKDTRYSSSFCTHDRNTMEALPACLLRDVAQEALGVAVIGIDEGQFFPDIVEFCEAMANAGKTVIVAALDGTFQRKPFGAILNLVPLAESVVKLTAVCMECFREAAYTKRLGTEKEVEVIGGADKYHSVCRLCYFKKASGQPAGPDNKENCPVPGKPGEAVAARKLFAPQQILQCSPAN
Description: (§1) Figure 3 Substrate saturation curves of TFT with human TK2 (A), human TK1 (B), and Ureaplasma TK (C). Kinetic assays with TFT were performed by using [γ-^32P]-ATP as the labelled substrate at fixed concentration and variable concentrations of TFT. The reaction products were separated by thin layer chromatography, and quantified as described in the experimental procedures.
(§2) Kinetic parameters for TFT were determined by using the phosphoryl transfer assays as previously described. Briefly, each reaction was performed in a total volume of 20 μl containing 50 mM Tris/HCl, pH 7.5, 0.5 mg/ml BSA, 5 mM DTT, 2 mM MgCl2, 15 mM NaF, variable concentrations of TFT, 0.1 mM [γ-^32P]-ATP, and 50 ng purified enzyme at 37°C for 20 min, and stopped by heating at 70°C for 2 min. After brief centrifugation, 1 μl supernatant was spotted onto a TLC plate (PEI-cellulose, Merck) and dried. The TLC plates were developed in isobutyric acid/ammonia/H2O (66:1:33). The reaction products were visualized and quantified by phosphoimaging analysis (Quantity One, Bio-Rad).

human TK2 = molecular target: T2, human TK2 (Homo sapiens, UniProt O00142); experiment: as above; assay type: biochemical; conditions: 100 μM [γ-32P]-ATP
T2 construct: made in house
T2 sequence (O00142 34-265): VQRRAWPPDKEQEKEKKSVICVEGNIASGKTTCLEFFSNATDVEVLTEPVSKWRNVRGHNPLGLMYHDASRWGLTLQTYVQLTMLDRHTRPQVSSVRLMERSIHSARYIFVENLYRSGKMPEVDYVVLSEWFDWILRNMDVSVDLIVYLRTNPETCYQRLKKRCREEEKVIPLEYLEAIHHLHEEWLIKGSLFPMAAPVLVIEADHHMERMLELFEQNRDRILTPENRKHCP
Description: as §1, §2

Ureaplasma TK = molecular target: T3, Ureaplasma TK (Ureaplasma parvum serovar 3, UniProt Q9PPP5); experiment: as above; assay type: biochemical; conditions: 100 μM [γ-32P]-ATP
T3 construct: made in house
T3 sequence (Q9PPP5 1-223): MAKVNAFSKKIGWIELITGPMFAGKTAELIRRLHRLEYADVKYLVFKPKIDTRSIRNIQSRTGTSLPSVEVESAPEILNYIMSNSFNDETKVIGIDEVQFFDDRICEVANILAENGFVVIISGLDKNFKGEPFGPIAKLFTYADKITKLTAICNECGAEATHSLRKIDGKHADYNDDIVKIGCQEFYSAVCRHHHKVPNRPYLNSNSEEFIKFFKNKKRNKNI
Description: as §1, §2

With `O=c1[nH]c(=O)n([C@H]2C[C@H](O)[C@@H](CO)O2)cc1C(F)(F)F` [Trifluorothymidine (TFT), Trifluorothymidine] the “thyA mutant MIC” value [1] was 1.8 µg/mL, the kcat (human TK1) was 0.043 ± 0.003 s⁻¹ and the Km (human TK1; TFT 1 – 100 μM) was 5.9 ± 1.7 µM. The kcat (human TK2) was 0.026 ± 0.003 s⁻¹, the Km (human TK2; TFT 1 – 100 μM) was 8.8 ± 3.8 µM and the kcat (Ureaplasma TK) was 0.055 ± 0.008 s⁻¹. For the same compound, the Km (Ureaplasma TK; TFT 1 – 100 μM) was 9.9 ± 5.2 µM.
